# Measurements reported in US20210253651A1, “METHOD FOR PRODUCING ORGANIC COMPOUND-ENCAPSULATING FERRITIN” (Ajinomoto Co., Inc., priority 2018, published 2021).
# Columns and labels:
# FTH ferritin = target: T1, FTH ferritin (Homo sapiens, UniProt P02794); assay: one-step process incorporation of small molecule agents into FTH ferritin; assay type: physicochemical; settings: for Incorporation efficiency (wt %) / Number of agent incorporated: 60 min; for Optimal pH in reaction: pH of buffer giving the largest amount of incorporation within ferritin
# T1 construct: made in house; host or cells: Escherichia coli BL21 (DE3), plasmid pET20-FTH
# Description: All of the reactions were performed in 0.1 mL volume. […] The absorbances were measured using spectrophotometer (DU-800, Beckman Coulter Inc.) for these solutions, and the concentration of contained protein was determined using the protein assay CBB solution (Nacalai Tesque, Inc.) as well as bovine albumin as a standard. Absorbances at 280 nm and 480 nm were measured for Rhodamine B and Congo Red. […] Then, after the absorbances were calibrated based on the absorbances that were derived from the proteins and presumed by the amount of contained protein quantified using the protein assay CBB solution, the concentrations of small molecule agents were determined based on the calibration curves obtained by the absorbances of the molecules. […] As a result, the one-step process enabled incorporating also the small molecule agents with different physical properties such as molecular weight and pKa simply and easily.
# [1] = single or first pKa value; cited from earlier work
# [2] = cited from earlier work
# T1 sequence (P02794 whole entry): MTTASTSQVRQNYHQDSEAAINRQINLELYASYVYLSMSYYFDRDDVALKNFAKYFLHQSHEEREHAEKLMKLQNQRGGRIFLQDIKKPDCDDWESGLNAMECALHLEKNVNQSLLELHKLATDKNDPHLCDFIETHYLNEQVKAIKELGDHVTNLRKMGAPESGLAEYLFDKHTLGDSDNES
compound,measurement,setting,value
NC(=O)c1cccnc1 [Nicotinamide],Incorporation efficiency (wt %),"FTH ferritin; pH 4, 40° C.",0.4 wt %
same,Number of agent incorporated,"FTH ferritin; pH 4, 40° C.",15.6
same,Incorporation efficiency (wt %),"FTH ferritin; pH 6, 40° C.",0.2 wt %
same,Number of agent incorporated,"FTH ferritin; pH 6, 40° C.",6.8
same,Incorporation efficiency (wt %),"FTH ferritin; pH 8, 40° C.",0.3 wt %
same,Number of agent incorporated,"FTH ferritin; pH 8, 40° C.",13.9
same,Incorporation efficiency (wt %),"FTH ferritin; pH 10, 40° C.",0.2 wt %
same,Number of agent incorporated,"FTH ferritin; pH 10, 40° C.",7.6
same,Optimal pH in reaction,FTH ferritin,4
same,pKa,[1],3.35
same,logP,[2],−0.37
Rhodamine B,Incorporation efficiency (wt %),"FTH ferritin; pH 4, 60° C.",0.4 wt %
same,Number of agent incorporated,"FTH ferritin; pH 4, 60° C.",4.3
same,Incorporation efficiency (wt %),"FTH ferritin; pH 5, 60° C.",1.5 wt %
same,Number of agent incorporated,"FTH ferritin; pH 5, 60° C.",16.7
same,Incorporation efficiency (wt %),"FTH ferritin; pH 6, 60° C.",0.3 wt %
same,Number of agent incorporated,"FTH ferritin; pH 6, 60° C.",3.5
same,Incorporation efficiency (wt %),"FTH ferritin; pH 7, 60° C.",0.2 wt %
same,Number of agent incorporated,"FTH ferritin; pH 7, 60° C.",2.3
same,Incorporation efficiency (wt %),"FTH ferritin; pH 8, 20° C.",1.0 wt %
same,Number of agent incorporated,"FTH ferritin; pH 8, 20° C.",11.1
same,Incorporation efficiency (wt %),"FTH ferritin; pH 8, 60° C.",0.2 wt %
same,Number of agent incorporated,"FTH ferritin; pH 8, 60° C.",1.8
same,Incorporation efficiency (wt %),"FTH ferritin; pH 9, 30° C.",0.7 wt %
same,Number of agent incorporated,"FTH ferritin; pH 9, 30° C.",7.6
same,Incorporation efficiency (wt %),"FTH ferritin; pH 9, 40° C.",0.4 wt %
same,Number of agent incorporated,"FTH ferritin; pH 9, 40° C.",3.9
same,Incorporation efficiency (wt %),"FTH ferritin; pH 9, 50° C.",0.2 wt %
same,Number of agent incorporated,"FTH ferritin; pH 9, 50° C.",2.6
same,Incorporation efficiency (wt %),"FTH ferritin; pH 9, 60° C.",0.2 wt %
same,Number of agent incorporated,"FTH ferritin; pH 9, 60° C.",2.5
same,Incorporation efficiency (wt %),"FTH ferritin; pH 10, 40° C.",0.3 wt %
same,Number of agent incorporated,"FTH ferritin; pH 10, 40° C.",3.2
same,Incorporation efficiency (wt %),"FTH ferritin; pH 10, 50° C.",0.2 wt %
same,Number of agent incorporated,"FTH ferritin; pH 10, 50° C.",2.6
same,Incorporation efficiency (wt %),"FTH ferritin; pH 10, 60° C.",0.6 wt %
same,Number of agent incorporated,"FTH ferritin; pH 10, 60° C.",6.6
same,Optimal pH in reaction,FTH ferritin,5
same,pKa,[1],3.1
same,logP,[2],1.78
NC(N)=Nc1nc(CSCCC(N)=NS(N)(=O)=O)cs1 [Famotidine],Number of agent incorporated,"FTH ferritin; pH 4, 40° C.",0.0
same,Number of agent incorporated,"FTH ferritin; pH 6, 20° C.",36.9
same,Number of agent incorporated,"FTH ferritin; pH 6, 40° C.",15.1
same,Number of agent incorporated,"FTH ferritin; pH 6, 60° C.",23.4
same,Number of agent incorporated,"FTH ferritin; pH 8, 40° C.",8.4
same,Number of agent incorporated,"FTH ferritin; pH 10, 40° C.",5.1
same,Optimal pH in reaction,FTH ferritin,6
same,pKa,[1],8.38
Cc1ncc(C[n+]2csc(CCO)c2C)c(N)n1 [Thiamine],Incorporation efficiency (wt %),"FTH ferritin; pH 4, 40° C.",0.8 wt %
same,Number of agent incorporated,"FTH ferritin; pH 4, 40° C.",11.6
same,Incorporation efficiency (wt %),"FTH ferritin; pH 6, 40° C.",0.9 wt %
same,Number of agent incorporated,"FTH ferritin; pH 6, 40° C.",13.9
same,Incorporation efficiency (wt %),"FTH ferritin; pH 8, 40° C.",0.9 wt %
same,Number of agent incorporated,"FTH ferritin; pH 8, 40° C.",13.7
same,Incorporation efficiency (wt %),"FTH ferritin; pH 10, 40° C.",0.9 wt %
same,Number of agent incorporated,"FTH ferritin; pH 10, 40° C.",13.6
same,Optimal pH in reaction,FTH ferritin,6
same,pKa,[1],5.5
same,logP,[2],−4.6
CN1CC(=O)NC1=N [Creatinine],Incorporation efficiency (wt %),"FTH ferritin; pH 4, 20° C.",0.4 wt %
same,Number of agent incorporated,"FTH ferritin; pH 4, 20° C.",15.8
same,Incorporation efficiency (wt %),"FTH ferritin; pH 4, 60° C.",0.5 wt %
same,Number of agent incorporated,"FTH ferritin; pH 4, 60° C.",24.8
same,Optimal pH in reaction,FTH ferritin,4
same,pKa,[1],2.96
same,logP,[2],−1.6
Nc1cc(N2CCCCC2)nc(N)[n+]1[O-] [Minoxidil],Incorporation efficiency (wt %),"FTH ferritin; pH 4, 40° C.",0.3 wt %
same,Number of agent incorporated,"FTH ferritin; pH 4, 40° C.",8.3
same,Incorporation efficiency (wt %),"FTH ferritin; pH 6, 20° C.",2.6 wt %
same,Number of agent incorporated,"FTH ferritin; pH 6, 20° C.",65.6
same,Incorporation efficiency (wt %),"FTH ferritin; pH 6, 40° C.",0.8 wt %
same,Number of agent incorporated,"FTH ferritin; pH 6, 40° C.",20.0
same,Incorporation efficiency (wt %),"FTH ferritin; pH 6, 60° C.",0.5 wt %
same,Number of agent incorporated,"FTH ferritin; pH 6, 60° C.",12.0
same,Incorporation efficiency (wt %),"FTH ferritin; pH 8, 40° C.",0.5 wt %
same,Number of agent incorporated,"FTH ferritin; pH 8, 40° C.",12.0
same,Incorporation efficiency (wt %),"FTH ferritin; pH 10, 40° C.",0.2 wt %
same,Number of agent incorporated,"FTH ferritin; pH 10, 40° C.",4.3
same,Optimal pH in reaction,FTH ferritin,6
same,pKa,[1],4.61
same,logP,[2],1.24
Cc1cc2nc3c(=O)[nH]c(=O)nc-3n(C[C@H](O)[C@H](O)[C@H](O)CO)c2cc1C [Riboflavin],Number of agent incorporated,"FTH ferritin; pH 4, 40° C.",6.4
same,Number of agent incorporated,"FTH ferritin; pH 6, 40° C.",6.5
same,Number of agent incorporated,"FTH ferritin; pH 8, 40° C.",6.4
same,Number of agent incorporated,"FTH ferritin; pH 10, 40° C.",7.7
same,Optimal pH in reaction,FTH ferritin,10
same,pKa,[1],10.2
Nc1c(/N=N/c2ccc(-c3ccc(/N=N/c4cc(S(=O)(=O)[O-])c5ccccc5c4N)cc3)cc2)cc(S(=O)(=O)[O-])c2ccccc12.[Na+].[Na+] [Congo Red],Incorporation efficiency (wt %),"FTH ferritin; pH 3, 25° C.",0.0 wt %
same,Number of agent incorporated,"FTH ferritin; pH 3, 25° C.",0.2
same,Incorporation efficiency (wt %),"FTH ferritin; pH 4, 25° C.",0.5 wt %
same,Number of agent incorporated,"FTH ferritin; pH 4, 25° C.",3.7
same,Incorporation efficiency (wt %),"FTH ferritin; pH 5, 25° C.",0.1 wt %
same,Number of agent incorporated,"FTH ferritin; pH 5, 25° C.",1.0
same,Incorporation efficiency (wt %),"FTH ferritin; pH 6, 10° C.",0.2 wt %
same,Number of agent incorporated,"FTH ferritin; pH 6, 10° C.",1.4
same,Incorporation efficiency (wt %),"FTH ferritin; pH 6, 20° C.",0.2 wt %
same,Number of agent incorporated,"FTH ferritin; pH 6, 20° C.",1.4
same,Incorporation efficiency (wt %),"FTH ferritin; pH 6, 25° C.",0.1 wt %
same,Number of agent incorporated,"FTH ferritin; pH 6, 25° C.",0.9
same,Incorporation efficiency (wt %),"FTH ferritin; pH 6, 30° C.",0.2 wt %
same,Number of agent incorporated,"FTH ferritin; pH 6, 30° C.",1.6
same,Incorporation efficiency (wt %),"FTH ferritin; pH 6, 40° C.",0.2 wt %
same,Number of agent incorporated,"FTH ferritin; pH 6, 40° C.",1.7
same,Incorporation efficiency (wt %),"FTH ferritin; pH 6, 50° C.",0.2 wt %
same,Number of agent incorporated,"FTH ferritin; pH 6, 50° C.",1.8
same,Incorporation efficiency (wt %),"FTH ferritin; pH 6, 60° C.",0.4 wt %
same,Number of agent incorporated,"FTH ferritin; pH 6, 60° C.",2.8
same,Incorporation efficiency (wt %),"FTH ferritin; pH 7, 25° C.",0.1 wt %
same,Number of agent incorporated,"FTH ferritin; pH 7, 25° C.",0.7
same,Incorporation efficiency (wt %),"FTH ferritin; pH 8, 25° C.",0.1 wt %
same,Number of agent incorporated,"FTH ferritin; pH 8, 25° C.",0.8
same,Incorporation efficiency (wt %),"FTH ferritin; pH 9, 25° C.",0.1 wt %
same,Number of agent incorporated,"FTH ferritin; pH 9, 25° C.",0.8
same,Optimal pH in reaction,FTH ferritin,4
same,pKa,[1],4.1
same,logP,[2],−1.88
